Reference: PMC11230938 (2024)

Key:
[1] = tested on: OTC8 (DNA, aptamer) GACGACGGGCAAGATCTATTCTTCACGTTCACCTTTGTCGTC; experiment: intrinsic fluorescence titration of OTC; conditions: 50 mM NaCl, 2 mM MgCl2; 10 mM MES pH 6.0; 100 nM OTC; 1 min equilibration
[2] = tested on: OTC43 (DNA, aptamer) GACGACTGGACCCTTCTGTGGTAGATTCTATCTAATGTCGTC; experiment: ITC; conditions: 50 mM NaCl, 2 mM MgCl2; 10 mM MES pH 6.0, 25 °C; 9 μM aptamer, 150 μM OTC
[3] = tested on: OTC22 (DNA, aptamer) GACGACAAAGCGTCTTACGTGCATACTTTTGTTGTCGTC; experiment: intrinsic fluorescence titration of OTC; conditions: 50 mM NaCl, 2 mM MgCl2; 10 mM MES pH 6.0; 100 nM OTC; 1 min equilibration
[4] = tested on: OTC23 (DNA, aptamer) GACGACGTGCTATTGCCTCAGTCATTCTCTGAGTCGTCGTC; experiment: intrinsic fluorescence titration of OTC; conditions: 50 mM NaCl, 2 mM MgCl2; 10 mM MES pH 6.0; 100 nM OTC; 1 min equilibration
[5] = tested on: OTC11 (DNA, aptamer) GACGACGCAGACATCTTGTGTGTCATAGCGCGCTACGTCGTC; experiment: intrinsic fluorescence titration of OTC; conditions: 50 mM NaCl, 2 mM MgCl2; 10 mM MES pH 6.0; 100 nM OTC; 1 min equilibration
[6] = tested on: OTC26 (DNA, aptamer) GACGACATAGCTTGCTACCACTCGTCTCCGTAGTGGCAGTCGTC; experiment: intrinsic fluorescence titration of OTC; conditions: 50 mM NaCl, 2 mM MgCl2; 10 mM MES pH 6.0; 100 nM OTC; 1 min equilibration
[7] = tested on: OTC43 (DNA, aptamer) GACGACTGGACCCTTCTGTGGTAGATTCTATCTAATGTCGTC; experiment: intrinsic fluorescence titration of OTC; conditions: 50 mM NaCl, 2 mM MgCl2; 10 mM MES pH 6.0; 100 nM OTC; 1 min equilibration
[8] = tested on: OTC34 (DNA, aptamer) GACGACGCAGTCTGATTTCAGCCATAGTTTTACTGCGTCGTC; experiment: intrinsic fluorescence titration of OTC; conditions: 50 mM NaCl, 2 mM MgCl2; 10 mM MES pH 6.0; 100 nM OTC; 1 min equilibration
[9] = tested on: OTC22 (DNA, aptamer) GACGACAAAGCGTCTTACGTGCATACTTTTGTTGTCGTC; experiment: ITC; conditions: 50 mM NaCl, 2 mM MgCl2; 10 mM MES pH 6.0, 25 °C; 9 μM aptamer, 150 μM OTC
[10] = tested on: OTC2 (DNA, aptamer) GACGACGCAATGTCCTTCGCAGGATCCGTTTACGGTGTCGTC; experiment: ITC; conditions: 50 mM NaCl, 2 mM MgCl2; 10 mM MES pH 6.0, 25 °C; 9 μM aptamer, 150 μM OTC
[11] = tested on: OTC2 (DNA, aptamer) GACGACGCAATGTCCTTCGCAGGATCCGTTTACGGTGTCGTC; experiment: intrinsic fluorescence titration of OTC; conditions: 50 mM NaCl, 2 mM MgCl2; 10 mM MES pH 6.0; 100 nM OTC; 12 min equilibration per addition (0.57 μM after 1 min)

## CN(C)[C@@H]1C(=O)C(C(N)=O)=C(O)[C@@]2(O)C(=O)C3=C(O)c4c(O)cccc4[C@@](C)(O)[C@H]3[C@H](O)[C@@H]12
[1]
  Kd: 200 nM
[2]
  Kd: 1600 ± 570 nM
[3]
  Kd: 290 nM
[4]
  Kd: 360 nM
[5]
  Kd: 320 nM
[6]
  Kd: 590 nM
[7]
  Kd: 690 nM
[8]
  Kd: 530 nM
[9]
  Kd: 490 ± 110 nM
[10]
  Kd: 62 ± 20 nM
[11]
  Kd: 81 nM
